Assay results: patent US5114961A, “2,5-diaryl tetrahydrofurans and analogs thereof as PAF antagonists” (Merck & Co., Inc., priority 1990, dated 1992)

Target: T1, PAF specific receptor binding site (human platelet membranes) (Homo sapiens, UniProt P25105)
T1 construct: platelet membranes at a drug concentration of 3 nM; from tissue; host or cells: human platelet plasma membranes
Assay: Inhibition of [3H]N-methylcarbamoyl-PAF binding to human platelet membranes
Settings: drug concentration of 3 nM, trans configuration
Protocol: The ability of a compound of formula (I) to inhibit the PAF binding to its specific receptor binding site on rabbit or human platelet or PMN plasma membranes was measured by a recently developed assay.
The inhibition of ^3 [H]-PAF or ^3 [H]-N-methyl carbamoyl-TAF binding to the human or rabbit platelet or PMN plasma membrane by a PAF antagonist of formula (I) was determined by a method employing isotopic labeling and filtration techniques. Generally, a series of Tris-buffered solutions of the selected antagonist at predetermined concentrations were prepared. Each of these solutions contains 1 pmole of ^3 H-PAF, a known amount of the test antagonist, and a sufficient amount of the pH 7.5 Tris-buffer solution (10mM Tris, 0.25% bovine serum albumin, and 150 mM NaCl per ml water) to make the final volume of 1 ml. After adding into a set of test tubes each with 100 μg of the platelet plasma membrane suspension (S. B. Hwang, et. al., Biochemistry, Vol. 22 pp. 4756-4763, 1983) and one of the Tris-buffer solutions described above, the resulting mixture in each test tube was incubated at 0° C. for about one hours or until the reaction was complete. Two control samples, one of which (C1) contains all the ingredients described above except the antagonist and the other (C2) contains C1 plus a 100-fold excess of unlabeled PAF, were also prepared and incubated simultaneously with the test samples. After the incubation was completed, the contents of each test tube were filtered under vacuo through a Whatman GF/C fiberglass filter and the residue washed rapidly several times with a total of 20 ml cold (0°-5° C.) Tris-buffer solution. Each washed residue was then suspended in 10 ml scintillation solution (Aquasol 2, New England Nuclear, Conn.) and the radioactivity was counted in a Packard Tri-Carb 460CD Liquid Scintillation System. Defining the counts from a test sample as "Total binding with antagonist"; the counts from the control sample C1, as "Total binding C1 "; and the counts from the control sample C2 as "non-specific binding C2 ", the percent inhibition of each test antagonist can be determined by the following equations: [formula]

T1 sequence (P25105 whole entry): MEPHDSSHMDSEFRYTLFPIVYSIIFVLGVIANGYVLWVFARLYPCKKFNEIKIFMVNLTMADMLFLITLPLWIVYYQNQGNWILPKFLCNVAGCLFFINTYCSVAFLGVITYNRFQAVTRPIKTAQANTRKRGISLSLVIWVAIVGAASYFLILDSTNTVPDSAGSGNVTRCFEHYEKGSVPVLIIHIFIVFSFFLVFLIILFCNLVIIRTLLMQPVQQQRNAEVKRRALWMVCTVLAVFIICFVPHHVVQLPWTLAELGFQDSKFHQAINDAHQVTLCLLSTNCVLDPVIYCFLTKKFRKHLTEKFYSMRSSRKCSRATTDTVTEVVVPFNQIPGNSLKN

- inhibition at 0.003 µM: 41%
SMILES: CCCOc1c(OCCCN2CCOCC2)cc([C@@H]2CC[C@@H](c3cc(OC)c(OC)c(OC)c3)O2)cc1S(=O)(=O)CC(C)=O [(-)-(2S,5S)-[3-(2-Oxopropylsulfonyl)-4-n-propoxy-5-{3-(1-morpholino)-n-propoxy}phenyl]-5-(3,4,5-trimethoxyphenyl)tetrahydrofuran]
